Like-named read-outs stand apart in the source and are kept apart here.
Columns and labels:
[1] = tested on: IL-4 stimulated expression of CD23 in human Ramos B cells (JAK-1 and JAK-3); assay: Assay for Ramos B-Cell Line Stimulated with IL-4 (CD23 upregulation, FACS); format: cell-based; details: read-out: IC50, Example 41
Procedure, shortened: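 Human Ramos B cells in RPMI with 5% serum were pre-incubated with compound or DMSO for 1 h at 37 °C, then stimulated with IL-4 at a final 50 units/mL for 20-24 h. CD23 upregulation was measured by anti-CD23-PE staining and flow cytometry, and IC50 values were calculated.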

Primary human T-cells = assay: Primary Human T-Cell Proliferation Assay Stimulated with IL-2 (CellTiter-Glo); format: cell-based; details: read-out: IC50, Example 42
Procedure, shortened: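 Peripheral blood T-cells pre-activated with anti-CD3/anti-CD28 and IL-2 were washed free of IL-2, then cultured with compound plus IL-2 for 72 hours at 37° C, duplicate wells. Viability read as ATP by CellTiter-Glo luminescence; IC50 reported.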

[2] = Homo sapiens, Ramos, Ramos B-cell line stimulated with IL-4, CD23 expression by FACS
[3] = Homo sapiens, T-cell, primary human T-cell proliferation stimulated with IL-2

SMILES	IC50 ([1]; Ramos B cells stimulated with IL-4, CD23 expression by FACS)	IC50 (Primary human T-cells; primary human T-cells stimulated with IL-2, proliferation)	IC50 [1, 2]	IC50 (Primary human T-cells; [3])
COc1ccc(CN2C(=O)C(C)Oc3ccc(Nc4nc(Nc5ccc(S(N)(=O)=O)cc5)ncc4F)cc32)cc1 (racemic) [Compound V-4, Racemic N2-(4-Aminosulphonylphenyl)-5-fluoro-N4-[2-methyl-3-oxo-4-(4-methoxybenzyl)-benz[1,4]oxazin-6-yl]-2,4-pyrimidinediamine]	108 nM	1540 nM	–	–
COc1cc(Nc2nc(Nc3ccc(S(N)(=O)=O)cc3)ncc2F)cc(OCC#N)c1OC [Compound I-1, N2-(4-Aminosulphonylphenyl)-N4-(3-cyanomethoxy-4,5-dimethoxyphenyl)-5-fluoro-2,4-pyrimidinediamine]	–	–	366 nM	9890 nM
N#CCOc1ccc(Nc2nc(Nc3ccc(S(N)(=O)=O)cc3)ncc2F)cc1F [Compound I-44, N2-(4-Aminosulfonylphenyl)-N4-(4-cyanomethoxy-3-fluorophenyl)-5-fluoro-2,4-pyrimidinediamine]	–	–	53.2 nM	342 nM
COc1cc(Nc2nc(Nc3ccc(S(N)(=O)=O)cc3)ncc2F)ccc1OCC#N [Compound I-45, N2-(4-Aminosulfonylphenyl)-N4-(4-cyanomethoxy-3-methoxyphenyl)-5-fluoro-2,4-pyrimidinediamine]	–	–	104 nM	834 nM
COc1cc(Nc2nc(Nc3cccc(S(N)(=O)=O)c3)ncc2F)ccc1OCC#N [Compound I-46, N2-(3-Aminosulfonylphenyl)-N4-(4-cyanomethoxy-3-methoxyphenyl)-5-fluoro-2,4-pyrimidinediamine]	–	–	113 nM	409 nM
COc1cc(Nc2nc(Nc3ccc(C)c(S(N)(=O)=O)c3)ncc2F)ccc1OCC#N [Compound I-47, N2-(3-Aminosulfonyl-4-methylphenyl)-N4-(4-cyanomethoxy-3-methoxyphenyl)-5-fluoro-2,4-pyrimidinediamine]	–	–	120 nM	551 nM
Cc1ccc(Nc2ncc(F)c(Nc3ccc(OCC#N)c(CO)c3)n2)cc1S(N)(=O)=O [Compound I-51, N2-(3-Aminosulfonyl-4-methylphenyl)-N4-(4-cyanomethoxy-3-hydroxymethylphenyl)-5-fluoro-2,4-pyrimidinediamine]	–	–	263 nM	2120 nM
N#CCOc1ccc(Nc2nc(Nc3ccc(S(N)(=O)=O)cc3)ncc2F)cc1-c1ccn(CC#N)n1 [Compound I-52, N2-(4-Aminosulfonylphenyl)-N4-[4-cyanomethoxy-3-(1-cyanomethylpyrazol-3-yl)phenyl]-5-fluoro-2,4-pyrimidinediamine]	–	–	152 nM	5300 nM
COc1ccc(Nc2ncc(F)c(Nc3ccc(OCC#N)cc3)n2)cc1S(N)(=O)=O [Compound I-56, N2-(3-Aminosulfonyl-4-methoxyphenyl)-N4-(4-cyanomethoxyphenyl)-5-fluoro-2,4-pyrimidinediamine]	–	–	104 nM	262 nM
Cc1cnc(Nc2cccc(S(N)(=O)=O)c2)nc1Nc1ccc(OCC#N)cc1 [Compound I-58, N2-(3-Aminosulfonylphenyl)-N4-(4-cyanomethoxyphenyl)-5-methyl-2,4-pyrimidinediamine]	–	–	5.05 nM	19.2 nM
Cc1ccc(Nc2ncc(C)c(Nc3ccc(OCC#N)cc3)n2)cc1S(N)(=O)=O [Compound I-59, N2-(3-Aminosulfonyl-4-methylphenyl)-N4-(4-cyanomethoxyphenyl)-5-methyl-2,4-pyrimidinediamine]	–	–	6.55 nM	24.9 nM
NC(=O)COc1ccc(Nc2nc(Nc3cccc(S(N)(=O)=O)c3)ncc2F)cc1Cl [Compound I-98, N4-(4-Aminocarbonylmethoxy-3-chlorophenyl)-N2-(3-aminosulfonylphenyl)-5-fluoro-2,4-pyrimidinediamine]	–	–	295 nM	–
NC(=O)COc1ccc(Nc2nc(Nc3cccc(S(N)(=O)=O)c3)ncc2F)cc1F [Compound I-101, N4-(4-Aminocarbonylmethoxy-3-fluorophenyl)-N2-(3-aminosulfonylphenyl)-5-fluoro-2,4-pyrimidinediamine]	–	–	328 nM	–
